Measured values from patent US20260207654A1, “HEPARAN SULFATE AND ITS MIMETICS AS CHEMOKINE INHIBITORS” (INDIAN INSTITUTE OF SCIENCE EDUCATION AND RESEARCH, priority 2021, published 2026).

What was measured:
Test in all cases: Chemokine glycan microarray binding assay
Conditions in all cases: maximum RFU set as 100% binding, average across 2 glycan concentrations and 3 chemokine dilutions (n=6)
CCL28 = biological target: T1, CCL28 (Homo sapiens, UniProt Q9NRJ3)
T1 sequence (Q9NRJ3 20-127): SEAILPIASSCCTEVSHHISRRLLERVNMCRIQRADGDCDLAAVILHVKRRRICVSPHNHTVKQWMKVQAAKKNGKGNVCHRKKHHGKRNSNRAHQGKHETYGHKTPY
Experimental: (§1) Microarray Studies: The compounds of the present invention were covalently immobilized on epoxy group collated glass slides. Slides were rehydrated with dH2O and incubated for 30 min in a staining dish with 50° C. prewarmed ethanolamine (0.05 M) in Tris-HCl (0.1 M, pH 9.0) to block the remaining reactive epoxy groups on the slide surface, then washed with 50° C. prewarmed dH2O. Slides were centrifuged at 200 g for 3 min, then fitted with the ProPlate Multi-Array 16-well slide module (Grace Bio-lab P37001) to divide into the subarrays (blocks). Slides were washed with PBST (0.1% Tween 20), aspirated, and blocked with 200 μL/subarray of blocking buffer (PBS pH 7.3+1% w/v ovalbumin) for 1 h at RT with gentle shaking. Next, the blocking solution was aspirated and 100 μL/block of primary chemokines diluted in PBS pH 7.3+1% w/v ovalbumin were incubated with gentle shaking for 2 hours at RT. Slides were washed 4 times with PBST, then with PBS (without Tween-20) for 2 min. Bound antibodies were detected by incubating with biotinylated secondary detections (1 ng/μL) diluted in PBS, 200 μL/block at RT for 1 h. Slides were washed 4 times with PBST, then with PBS (without Tween-20) for 2 min and biotinylated antibodies were detected with Cy3-SA ([…]). Slides were washed 4 times with PBST, then with PBS for 10 min followed by removal from the ProPlate Multi-Array slide module and immediately dipping in a staining dish with dH2O for 10 min with shaking. The slides were then centrifuged at 200 g for 3 min, and the dry slides immediately scanned. Binding was tested at three serial dilutions, then detected with the relevant biotinylated secondary antibody (1 μg/mL) followed by Cy3-strepavidin (1.5 μg/mL). Arrays were scanned and RFUs were calculated of chemokines binding to 100 μM glycans printed at four replicates. Rank binding of chemokines (each at three dilutions) to glycans printed at four replicates each was calculated and summarized in Table 1. For each binding assay per printed block, the maximum RFU was determined and set as 100% binding. Then, binding to all other glycans in the same block was ranked in comparison to the maximal binding, and average rank binding (and SEM) for each glycan across the three examined concentrations of each chemokine was calculated. This analysis allowed to compare the glycan-binding profiles of the different chemokines and dissect their binding preferences.
(§2) Table 1. Chemokine glycan microarray binding assay. Binding was tested at 3 serial dilutions, then detected with the relevant biotinylated secondary antibody (1 μg/ml) followed by Cy3-Strepavidin (1.5 μg/ml) (Table SX). Arrays were scanned, relative fluorescent units (RFU) obtained, and maximum RFU determined and set as 100% binding. Then rank binding (per printed glycan per concentration, per each chemokine dilution, per printed block) was determined. Since each glycans was printed at 2 concentration, 100% binding was set separately for each concentration. Then, binding to all the other glycans at the same concentration was ranked in comparison to the maximal binding, and the average rank binding and SEM for each glycan across the two glycan concentrations and three examined dilutions of each chemokine was calculated (n=6, 2 glycan concentrations across 3 chemokine dilutions). This analysis allowed to compare the glycan binding profiles of the different chemokines and dissect their binding preferences. The mean rank is shown as a heatmap of all the examined binding assays together (red highest, blue lowest and white 50th percentile of ranking).

CXCL8 = biological target: T2, CXCL8 (Homo sapiens, UniProt P10145)
T2 sequence (P10145 21-99): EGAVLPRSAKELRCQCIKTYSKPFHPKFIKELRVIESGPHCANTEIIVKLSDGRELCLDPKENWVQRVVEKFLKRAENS
Experimental: as §1, §2

CCL13 = CCL13 (Homo sapiens, UniProt Q99616)
CCL13, sequence (Q99616 17-98, species assumed): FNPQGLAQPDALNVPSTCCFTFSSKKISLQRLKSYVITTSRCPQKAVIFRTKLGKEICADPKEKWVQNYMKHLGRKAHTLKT
Experimental: as §1, §2

CCL5 = biological target: T3, CCL5 (Homo sapiens, UniProt P13501)
T3 sequence (P13501 24-91): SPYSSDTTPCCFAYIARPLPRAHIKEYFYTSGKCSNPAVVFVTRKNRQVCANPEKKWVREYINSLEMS
Experimental: as §1, §2

CXCL12 = CXCL12 (Homo sapiens, UniProt P48061)
CXCL12, sequence (P48061 22-93, species assumed): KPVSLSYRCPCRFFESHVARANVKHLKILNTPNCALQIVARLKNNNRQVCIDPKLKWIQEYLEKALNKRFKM
Experimental: as §1, §2

CCL7 = CCL7 (Homo sapiens, UniProt P80098)
CCL7, sequence (P80098 24-99, species assumed): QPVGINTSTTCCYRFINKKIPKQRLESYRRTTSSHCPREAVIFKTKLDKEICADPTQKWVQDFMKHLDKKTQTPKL
Experimental: as §1, §2

CCL21 = biological target: T4, CCL21 (Homo sapiens, UniProt O00585)
T4 sequence (O00585 24-134): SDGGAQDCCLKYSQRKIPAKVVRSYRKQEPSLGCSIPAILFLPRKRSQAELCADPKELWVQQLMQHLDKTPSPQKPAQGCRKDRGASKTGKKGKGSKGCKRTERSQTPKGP
Experimental: as §1, §2

CXCL10 = biological target: T5, CXCL10 (Homo sapiens, UniProt P02778)
T5 sequence (P02778 22-98): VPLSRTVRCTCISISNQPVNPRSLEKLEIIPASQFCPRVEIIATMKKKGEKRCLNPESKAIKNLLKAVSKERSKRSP
Experimental: as §1, §2

CCL2 = CCL2 (Homo sapiens, UniProt P13500)
CCL2, sequence (P13500 24-99, species assumed): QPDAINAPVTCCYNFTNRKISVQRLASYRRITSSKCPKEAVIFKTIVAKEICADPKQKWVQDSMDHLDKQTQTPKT
Experimental: as §1, §2

Row | SMILES | mean rank binding to CCL28 (CCL28) [%] | mean rank binding to CXCL8 (CXCL8) [%] | mean rank binding to CCL13 (CCL13) [%] | mean rank binding to CCL5 (CCL5) [%] | mean rank binding to CXCL12 (CXCL12) [%] | mean rank binding to CCL7 (CCL7) [%] | mean rank binding to CCL21 (CCL21) [%] | mean rank binding to CXCL10 (CXCL10) [%] | mean rank binding to CCL2 (CCL2) [%]
1 | CC(=O)NC1C(O)[C@H](O)C(CO)O[C@@H]1O[C@@H]1C(C(=O)O)O[C@@H](O[C@@H]2C(CO)O[C@H](O[C@@H]3C(C(=O)O)O[C@@H](OCCCN)C(O)C3O)C(NC(C)=O)C2O)C(O)C1O (stereo partly drawn) [Example 16, 3-Aminopropyl-O-[(2-acetamido-2-deoxy-α-D-glucopyranosyl)-(1→4)-O-(α-L-idopyranosyluronate)-(1→4)-O-(2-acetamido-2-deoxy-α-D-glucopyranosyl)]-(1→4)-O-α-L-idopyranosiduronate] | 22 | 3 | 24 | 1 | 16 | 2 | 27 | 14 | 0
2 | CC(=O)NC1C(O)[C@H](O)C(CO)O[C@@H]1O[C@@H]1C(C(=O)O)O[C@@H](O[C@@H]2C(CO)O[C@H](O[C@@H]3C(C(=O)O)O[C@@H](OCCCN)C(OS(=O)(=O)O)C3O)C(NC(C)=O)C2O)C(OS(=O)(=O)O)C1O (stereo partly drawn) [Example 14, 3-Aminopropyl-O-[(2-acetamido-2-deoxy-α-D-glucopyranosyl)-(1→4)-O-(2-O-sulfonato-α-L-idopyranosyluronate)-(1→4)-O-(2-acetamido-2-deoxy-α-D-glucopyranosyl)]-(1→4)-O-2-O-sulfonato-α-L-idopyranosiduronate] | 21 | 2 | 21 | 1 | 11 | 1 | 23 | 11 | 0
3 | NCCOCCO[C@@H]1O[C@@H](C(=O)O)[C@@H](O[C@@H]2O[C@@H](C(=O)O)[C@@H](O[C@@H]3O[C@@H](C(=O)O)[C@@H](OS(=O)(=O)O)[C@H](O)[C@H]3OS(=O)(=O)O)[C@H](O)[C@H]2OS(=O)(=O)O)[C@H](O)[C@H]1OS(=O)(=O)O [Example 9, Ethoxy-2-aminoethoxyl-O-(2,4-O-disulfonato)-α-L-idopyranosyl Uronic Acid-α(1→4)(2-O-sulfonato)-α-L-idopyranosyl uronic acid-α(1→4)(2-O-sulfonato)-α-L-idopyranoside Uronic Acid] | 51 | 71 | 53 | 75 | 75 | 94 | 79 | 82 | 66

The remaining lines, values ahead:

Row | mean rank binding to CCL28 (CCL28) [%] | mean rank binding to CXCL8 (CXCL8) [%] | mean rank binding to CCL13 (CCL13) [%] | mean rank binding to CCL5 (CCL5) [%] | mean rank binding to CXCL12 (CXCL12) [%] | mean rank binding to CCL7 (CCL7) [%] | mean rank binding to CCL21 (CCL21) [%] | mean rank binding to CXCL10 (CXCL10) [%] | mean rank binding to CCL2 (CCL2) [%] | SMILES
4 | 46 | 17 | 74 | 2 | 62 | 30 | 52 | 47 | 4 | NCCOCCO[C@@H]1OC(C(=O)O)[C@@H](O)C(O)C1O (stereo partly drawn) [Example 1, Ethaoxy-2-aminoethoxyl-O-α-L-idopyranoside Uronic Acid]
5 | 84 | 73 | 94 | 38 | 79 | 55 | 71 | 67 | 25 | NCCOCCO[C@@H]1O[C@@H](C(=O)O)[C@@H](O[C@@H]2O[C@@H](C(=O)O)[C@@H](OS(=O)(=O)O)[C@H](O)[C@H]2OS(=O)(=O)O)[C@H](O)[C@H]1OS(=O)(=O)O [Example 6, Ethoxy-2-aminoethoxyl-O-((2,4-O-disulfonato)-α-L-idopyranosyl Uronic Acid-α(1→4)(2-sulfonato))-α-L-idopyroside Uronic Acid]
